Test results as given in patent publication US10392422B2, “Macrocyclic broad spectrum antibiotics” (priority 2014, dated 2019).
Converted amounts (≈) assume the structure as drawn. Like-named read-outs stand apart in the source and are kept apart here.

Experiments:
Assay in all cases: MIC, broth micro-dilution technique (CLSI)
[1] = test system: Escherichia coli MC4100 harboring the IMP4213; assay type: cell-based; conditions: Escherichia coli, 22 h, read-out: MIC (μg/mL) E. coli, Table 1 protocol: serial 2-fold dilutions starting from 64 μg/ml; 35° C., 22 hours
In short: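 Cation-adjusted MHB + 0.002% Tween-80; 10-point 2-fold series starting 64 μg/ml (modified protocol: 4 μg/mL). Final inoculum OD600 0.0005; 35° C, 22 h. MIC per CLSI M07-A8 broth microdilution.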

[2] = test system: Methicillin Resistant Staphylococcus aureus strain USA 300 (NRS384); assay type: cell-based; conditions: Staphylococcus aureus, 22 h, read-out: MIC (μg/mL) S. aureus
In short: (§1)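 CLSI broth microdilution in cation-adjusted Mueller Hinton broth with 0.002% v/v Tween-80. Compounds were serially 2-fold diluted over 10 concentrations from 64 μg/ml, or from 4 μg/mL in a modified protocol; inoculum at final OD600 0.0005, incubated 35° C for 22 hours.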

[3] = test system: MRSA COL (NRS100); assay type: cell-based, Staphylococcus aureus; conditions: Staphylococcus aureus, 22 h, read-out: MIC (μg/mL) (COL)
In short: as §1

[4] = Table 1 protocol: serial 2-fold dilutions starting from 64 μg/ml, 35° C., 22 hours

SMILES	MIC [1] [µg/mL]	MIC [2, 4] [µg/mL]	MIC [3, 4] [µg/mL]	MIC [2] [µg/mL]	MIC [3] [µg/mL]
CCCCCCCCCCNCCC(=O)N[C@@H](CCCCN)C(=O)N(C)[C@@H]1C(=O)N[C@@H](C)C(=O)N[C@H](C(=O)N[C@@H](C)C(=O)c2nnn[nH]2)Cc2ccc(O)c(c2)-c2cc1ccc2OCCN [Compound 193]	8 (≈ 8.7 µM)	0.5 (≈ 0.544 µM)	0.13 (≈ 0.141 µM)	–	–
CC(NC(=O)[C@@H]1Cc2ccc(O)c(c2)-c2cc(ccc2O)[C@H](N(C)C(=O)[C@H](CCCCN)NC(=O)c2ccc(-c3ccc(Cl)cc3)cc2)C(=O)N[C@@H](C)C(=O)N1)C(=O)c1ncccn1 (stereo partly drawn) [Compound 194]	8 (≈ 8.99 µM)	8 (≈ 8.99 µM)	4 (≈ 4.5 µM)	–	–
COCC(=O)[C@H](C)NC(=O)[C@@H]1Cc2ccc(O)c(c2)-c2cc(ccc2OCCN)[C@H](N(C)C(=O)[C@H](CCCCN)NC(=O)c2ccc(-c3ccc(Cl)cc3)cc2)C(=O)N[C@@H](C)C(=O)N1 [Compound 195]	2 (≈ 2.23 µM)	2.8 (≈ 3.12 µM)	0.38 (≈ 0.423 µM)	–	–
CCCCCCCCCCNCCC(=O)N(C)[C@@H]1C(=O)N[C@@H](C)C(=O)N[C@H](C(=O)N[C@@H](C)C(C)=O)Cc2ccc(O)c(c2)-c2cc1ccc2O [Compound 196]	> 64	–	–	4 (≈ 5.76 µM)	1 (≈ 1.44 µM)
C[C@@H]1NC(=O)[C@@H](N(C)C(=O)[C@H](CCCCN)NC(=O)c2ccc(-c3ccc(Cl)cc3)cc2)c2ccc(O)c(c2)-c2cc(ccc2O)C[C@@H](C(=O)N[C@@H](C)C(=O)N(C)[C@H](C)C(N)=O)NC1=O [Compound 197]	32 (≈ 35.1 µM)	20 (≈ 21.9 µM)	3.9 (≈ 4.28 µM)	–	–
C[C@@H]1NC(=O)[C@@H](N(C)C(=O)[C@H](CCCCN)NC(=O)c2ccc(-c3ccc(Cl)cc3)cc2)c2ccc(O)c(c2)-c2cc(ccc2O)C[C@@H](C(=O)N[C@@H](C)C(=O)N(C)[C@@H](CO)C(N)=O)NC1=O [Compound 198]	16 (≈ 17.3 µM)	13 (≈ 14 µM)	2 (≈ 2.16 µM)	–	–
C[C@@H]1NC(=O)[C@@H](N(C)C(=O)[C@H](CCCCN)NC(=O)c2ccc(-c3ccc(Cl)cc3)cc2)c2ccc(O)c(c2)-c2cc(ccc2O)C[C@@H](C(=O)N[C@@H](CO)C(=O)N(C)[C@@H](C)C(N)=O)NC1=O [Compound 199]	64 (≈ 69 µM)	10 (≈ 10.8 µM)	2 (≈ 2.16 µM)	–	–
CCCCCCCCCCNCCC(=O)N[C@@H](CCCCN)C(=O)N(C)[C@@H]1C(=O)N[C@@H](C)C(=O)N[C@H](C(=O)N[C@@H](C)C(=O)COC(C)=O)Cc2ccc(O)c(c2)-c2cc1ccc2O [Compound 200]	64 (≈ 72.7 µM)	2 (≈ 2.27 µM)	0.5 (≈ 0.568 µM)	–	–
CCCCCCCCCCNCCC(=O)N[C@@H](CCCCN)C(=O)N(C)[C@@H]1C(=O)N[C@@H](C)C(=O)N[C@H](C(=O)N[C@@H](C)C(=O)CO)Cc2ccc(O)c(c2)-c2cc1ccc2OCCN [Compound 201]	8 (≈ 9.08 µM)	0.35 (≈ 0.397 µM)	0.063 (≈ 0.0715 µM)	–	–
CC(=O)[C@H](C)NC(=O)[C@@H]1Cc2ccc(O)c(c2)-c2cc(ccc2OCCCN)[C@H](N(C)C(=O)[C@H](CCCCN)NC(=O)c2ccc(-c3ccc(Cl)cc3)cc2)C(=O)N[C@@H](C)C(=O)N1 [Compound 202]	8 (≈ 9.07 µM)	2.8 (≈ 3.17 µM)	0.5 (≈ 0.567 µM)	–	–
CNCCNCCOc1ccc2cc1-c1cc(ccc1O)C[C@@H](C(=O)N[C@@H](C)C(C)=O)NC(=O)[C@H](C)NC(=O)[C@H]2N(C)C(=O)[C@H](CCCCN)NC(=O)c1ccc(-c2ccc(Cl)cc2)cc1 [Compound 204]	8 (≈ 8.64 µM)	11 (≈ 11.9 µM)	1 (≈ 1.08 µM)	–	–
CC(=O)[C@H](C)NC(=O)[C@@H]1Cc2ccc(O)c(c2)-c2cc(ccc2OCCNCC(=O)O)[C@H](N(C)C(=O)[C@H](CCCCN)NC(=O)c2ccc(-c3ccc(Cl)cc3)cc2)C(=O)N[C@@H](C)C(=O)N1 [Compound 205]	32 (≈ 34.5 µM)	32 (≈ 34.5 µM)	6 (≈ 6.48 µM)	–	–
CNCCCNCCOc1ccc2cc1-c1cc(ccc1O)C[C@@H](C(=O)N[C@@H](C)C(C)=O)NC(=O)[C@H](C)NC(=O)[C@H]2N(C)C(=O)[C@H](CCCCN)NC(=O)c1ccc(-c2ccc(Cl)cc2)cc1 [Compound 206]	4 (≈ 4.26 µM)	4 (≈ 4.26 µM)	0.19 (≈ 0.202 µM)	–	–
